Experimental data published in US11591369B2, “Alpha(v)beta(6) integrin-binding peptides and methods of use thereof” (priority 2018, dated 2023).
Where two headings read alike, the source gives them in different places. Where a SMILES comes first, the peptide text is derived from it. Primed or numbered codes have the meaning given here. Where no end group is shown, it is not given here. The star is where a group is joined. (18F)FB″ = [18F]fluorobenzoyl, O=C(c1ccc([18F])cc1)*; Benzoyl(4-F) = O=C(c1ccc(F)cc1)*

Assays:
αvβ8 integrin = molecular target: T1, αvβ8 integrin (Homo sapiens, UniProt P06756+P26012); test: Competitive binding ELISA, αvβ8 integrin
T1 construct: All purified integrins were purchased from R&D Systems (MN, USA); purchased R&D Systems (MN, USA)

αvβ3 integrin = molecular target: T2, αvβ3 integrin (Homo sapiens, UniProt P05106+P06756); test: Competitive binding ELISA, αvβ3 integrin
T2 construct: All purified integrins were purchased from R&D Systems (MN, USA); purchased R&D Systems (MN, USA)

αvβ6 integrin = molecular target: T3, αvβ6 integrin (Homo sapiens, UniProt P06756+P18564); test: Competitive binding ELISA against biotinylated LAP (BtLAP), αvβ6 integrin; details: for binding selectivity for αvβ6 over αvβ3 and αvβ8 integrins: ELISA IC50 ratio; for IC50 αvβ6: competitive ELISA vs BtLAP, mean ± SD, n = 3
T3 construct: All purified integrins were purchased from R&D Systems (MN, USA); purchased R&D Systems (MN, USA)

DX3puroβ6 (αvβ6+) cells = test: [18F]-radiolabeled peptide cell binding and internalization, DX3puroβ6 (αvβ6+) cells; type: cell-based, human; details: for binding to DX3puroβ6 (αvβ6+) cells: % of total activity, 37° C.
[1] = Circular dichroism (CD) spectroscopy; type: physicochemical; details: for % Helical Content CD Buffer: 25 mM phosphate + 100 mM NaF; for % Helical Content CD Buffer + 30% TFE: buffer with 30% trifluoroethanol; for α-helix formation in CD buffer with TFE: buffer with added TFE, 30%
[2] = tested on: αvβ6-expressing human tumors; details: mouse, in vivo; cited from earlier work
[3] = 37° C., 1 hour, radio-HPLC

Compound | IC50 (αvβ8 integrin) [nM] | IC50 (αvβ3 integrin) [nM] | IC50 (αvβ6 integrin) [nM] | binding to DX3puroβ6 (αvβ6+) cells (DX3puroβ6 (αvβ6+) cells; 1 hour) [%] | DX3puroβ6 (αvβ6+)/DX3puro (αvβ6−) selectivity ratio (DX3puroβ6 (αvβ6+) cells; cell binding, 1 hour) | binding selectivity for αvβ6 over αvβ3 and αvβ8 integrins (αvβ6 integrin) | IC50 αvβ6 (αvβ6 integrin) | % Helical Content CD Buffer [1] [%] | % Helical Content CD Buffer + 30% TFE [1] [%] | α-helix formation in CD buffer with TFE [1] | DX3puroβ6 (αvβ6+)/DX3puro (αvβ6−) selectivity ratio (DX3puroβ6 (αvβ6+) cells) | unmetabolized peptide in urine [2] | intact peptide in mouse serum [3] [%] | percent internalized relative to the amount bound to DX3puroβ6 (αvβ6+) cells (DX3puroβ6 (αvβ6+) cells; 1 hour) [%]
CC(C)C[C@H](NC(=O)[C@H](CC(=O)O)NC(=O)[C@H](CO)NC(=O)[C@H](CCCNC(=N)N)NC(=O)c1ccc(F)cc1)C(=O)N[C@H](C(=O)N1CCC[C@H]1C(=O)N[C@@H](CC(C)C)C(=O)N[C@@H](Cc1ccccc1)C(=O)N[C@@H](CCC(N)=O)C(=O)N[C@@H](CCCCN)C(=O)N[C@H](C(=O)N[C@@H](C)C(=O)N[C@@H](CCCNC(=N)N)C(=O)N[C@H](C(N)=O)[C@@H](C)O)C(C)C)[C@@H](C)O [KL3Q] ({Benzoyl(4-F)}-RSDLTPLFQKVART-NH2) | > 100000 | > 100000 | 8.7 ± 0.7 | – | – | – | – | – | – | – | – | – | – | –
CC(C)C[C@H](NC(=O)[C@H](CC(=O)O)NC(=O)[C@H](CO)NC(=O)[C@H](CCCNC(=N)N)NC(=O)c1ccc(F)cc1)C(=O)N[C@H](C(=O)N1CCC[C@H]1C(=O)N[C@@H](CC(C)C)C(=O)N[C@@H](Cc1ccccc1)C(N)=O)[C@@H](C)O [KL3] ({Benzoyl(4-F)}-RSDLTPLF-NH2) | > 100000 | > 100000 | 1700 ± 500 | 0.7±0.2 | 0.9±0.5 :1 | – | – | – | – | – | – | – | – | –
CC(C)C[C@H](NC(=O)[C@H](Cc1ccc(O)cc1)NC(=O)[C@@H](NC(=O)[C@H](CC(C)C)NC(=O)[C@H](CC(=O)O)NC(=O)CNC(=O)[C@@H](NC(=O)c1ccc(F)cc1)C(C)C)[C@@H](C)O)C(=O)N[C@@H](CCCCN)C(=O)N[C@@H](CCCCN)C(=O)N[C@@H](CCCCN)C(=O)N[C@H](C(=O)N[C@@H](C)C(=O)N[C@@H](CCCNC(=N)N)C(=O)N[C@H](C(N)=O)[C@@H](C)O)C(C)C [P1K-b] | > 100000 | > 100000 | 10 ± 2 | – | – | 10,000 :1 | low nanomolar | – | – | – | – | – | – | –
CC(C)C[C@H](NC(=O)[C@H](Cc1ccc(O)cc1)NC(=O)[C@@H](NC(=O)[C@H](CC(C)C)NC(=O)[C@H](CC(=O)O)NC(=O)CNC(=O)[C@@H](NC(=O)c1ccc(F)cc1)C(C)C)[C@@H](C)O)C(=O)N[C@@H](CCCCN)C(=O)N[C@@H](CCCNC(=N)N)C(=O)N[C@@H](CCCCN)C(=O)N[C@@H](C)C(=O)N[C@H](C(=O)N[C@H](C(=O)N[C@@H](CCC(N)=O)C(N)=O)C(C)C)[C@@H](C)O [P1Q-Scrb] ({Benzoyl(4-F)}-VGDLTYLKRKATVQ-NH2) | 2900 ± 740 | > 100000 | 14 ± 2 | – | – | – | low nanomolar | – | – | – | – | – | – | –
CC(C)C[C@H](NC(=O)[C@H](Cc1ccc(O)cc1)NC(=O)[C@@H](NC(=O)[C@H](CC(C)C)NC(=O)[C@H](CC(=O)O)NC(=O)CNC(=O)[C@@H](NC(=O)c1ccc(F)cc1)C(C)C)[C@@H](C)O)C(=O)N[C@@H](CCCCN)C(=O)N[C@@H](CCC(N)=O)C(=O)N[C@@H](CCCCN)C(=O)N[C@H](C(=O)N[C@@H](C)C(=O)N[C@@H](CCCNC(=N)N)C(=O)N[C@H](C(N)=O)[C@@H](C)O)C(C)C [P1Q] | > 100000 | > 100000 | 12 ± 1 | – | – | 10,000 :1 | low nanomolar | 1.6 | 45.1 | α-helices were induced | 10.3 ± 1:1 | – | – | –
CC(C)C[C@H](NC(=O)[C@H](Cc1ccc(O)cc1)NC(=O)[C@@H](NC(=O)[C@H](CC(C)C)NC(=O)[C@H](CC(=O)O)NC(=O)CNC(=O)[C@@H](N)C(C)C)[C@@H](C)O)C(=O)N[C@@H](CCCCN)C(=O)N[C@@H](CCCCNC(=O)c1ccc(F)cc1)C(N)=O [P1] (H-VGDLTYLKK(Benzoyl(4-F))-NH2) | 5300 ± 140 | > 100000 | 450 ± 60 | – | – | – | – | 6.3 | 9.5 | could not form the helix | 1.1 ± 0.1:1 | – | – | –
CC(C)C[C@H](NC(=O)[C@H](CC(=O)O)NC(=O)CNC(=O)[C@H](CCCNC(=N)N)NC(=O)c1ccc(F)cc1)C(=O)N[C@@H](C)C(=O)N[C@@H](CC(=O)O)C(=O)N[C@@H](CC(C)C)C(=O)N[C@@H](CCCNC(=N)N)C(=O)N[C@@H](CCC(N)=O)C(=O)N[C@@H](CCCCN)C(=O)N[C@H](C(=O)N[C@@H](C)C(=O)N[C@@H](CCCNC(=N)N)C(=O)N[C@H](C(N)=O)[C@@H](C)O)C(C)C [P3Q] ({Benzoyl(4-F)}-RGDLADLRQKVART-NH2) | 20 ± 3 | > 100000 | 4 ± 1 | – | 11.8 ± 0.4:1 | – | – | 14.7 | 30 | – | – | – | – | –
CC(C)C[C@H](NC(=O)[C@H](CC(=O)O)NC(=O)CNC(=O)[C@@H](N)CCCNC(=N)N)C(=O)N[C@@H](C)C(=O)N[C@@H](CC(=O)O)C(=O)N[C@@H](CC(C)C)C(=O)N[C@@H](CCCNC(=N)N)C(=O)N[C@@H](CCCCNC(=O)c1ccc(F)cc1)C(N)=O [P3] (H-RGDLADLRK(Benzoyl(4-F))-NH2) | 200 ± 20 | > 100000 | 420 ± 70 | 10.8±1.4 | 1.4±0.2 :1 | – | – | 11.6 | 7 | – | – | – | – | –
FB-NAVPNLRGDLQVLAQKVART [A20FMDV2, reference compound] | – | – | – | – | – | – | – | – | – | – | 10:1 | no unmetabolized peptide was detected | – | –
RGDLADLRK([^18F]FB) (RGDLADLRK((18F)FB″)) [[^18F]P3] | – | – | – | 10.8±1.4 | – | – | – | – | – | – | – | – | 0 | 4.3±0.6
